This is an account of results in ChEMBL document CHEMBL1201862, “PubChem BioAssay data set” (2004).

Molecules are shown by their SMILES.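 Compound exposure: 48 hours, 5 concentrations, 96-well plates. GI50 is the concentration that inhibits growth by half.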 Calls of active or inactive are those of the source. No stated cut-off is given here; in the data, active = GI50 up to about 1.1 µM and inactive = higher. Where only a bound is given, the exact number is not on record here.

Among the test systems are K562; CAKI-1; SF-295; SK-OV-3; HOP-62; UACC-62; MDA-MB-231; LOX IMVI; OVCAR-4; RXF 393; NCI-H522; M14; MCF7; UO-31; OVCAR-5; T47D; BT-549; SNB-19; U-251; EKVX.
Holding throughout (test): NCI-60 cell line screen, 48 h

Turning to `CCOC(=O)C(NC(=O)CC)(Nc1ccc(S(=O)(=O)Nc2ccc(OC)nn2)cc1)C(F)(F)F` (stereo not given), the GI50 in the assay on K562, in the assay with CAKI-1, in the assay on SF-295, in the assay with SK-OV-3, in the assay on HOP-62 and with UACC-62 was > 100 µM (inactive) in each case. Moreover, the GI50 in the assay on MDA-MB-231, in the assay on LOX IMVI, in the assay on OVCAR-4, in the assay with RXF 393, in the assay with NCI-H522 and in the assay on M14 was > 100 µM (inactive) each time. In addition, the GI50 in the assay on MCF7, in the assay on UO-31, with OVCAR-5, in the assay with T47D, in the assay on BT-549 and in the assay on SNB-19 was > 100 µM (inactive) in each case. Besides, the GI50 in the assay on U-251 and in the assay with EKVX was > 100 µM (inactive) each time.
As for `CC(C)=CCc1cc(C2COc3cc4c(c(O)c3C2=O)C=CC(C)(C)O4)c(O)cc1O` (stereo not given), the GI50 was 3.08 µM (inactive) in the assay with K562; 17.2 µM (inactive) in the assay with CAKI-1; 17.8 µM (inactive) with SF-295; 15.7 µM (inactive) with SK-OV-3; 17.8 µM (inactive) in the assay on HOP-62; 15.7 µM (inactive) in the assay on UACC-62. Also, the GI50 is 14.2 µM (inactive) with MDA-MB-231; 17.7 µM (inactive) with LOX IMVI; 10.6 µM (inactive) in the assay on OVCAR-4; 6.59 µM (inactive) in the assay with RXF 393; 11.6 µM (inactive) in the assay on NCI-H522; 13.4 µM (inactive) in the assay with M14. Also, the GI50 with MCF7 is 11.8 µM (inactive); with UO-31 it was 12.8 µM (inactive); in the assay with OVCAR-5 it was 15.6 µM (inactive); in the assay on T47D, 4.99 µM (inactive); with BT-549, 16.3 µM (inactive); in the assay with SNB-19, 19.3 µM (inactive). The GI50 in the assay with U-251 was 16 µM (inactive); with EKVX it was 12.7 µM (inactive).
In the case of `CC(=N/NC(=S)N1CCCCC1)/C(C)=N\NC(=S)N1CCCCC1`, the GI50 in the assay with K562 was 2.25 µM (inactive); in the assay with CAKI-1, 1.71 µM (inactive); in the assay on SF-295, 1.71 µM (inactive); in the assay on SK-OV-3, 1.83 µM (inactive); in the assay on HOP-62 it was 1.79 µM (inactive); in the assay with UACC-62, 1.35 µM (inactive). For the same molecule, the GI50 in the assay on MDA-MB-231 was 2 µM (inactive); in the assay on LOX IMVI, 3.15 µM (inactive); with OVCAR-4, 1.74 µM (inactive); with RXF 393 it was 1.59 µM (inactive); in the assay with NCI-H522, 2.09 µM (inactive); in the assay with M14, 2.19 µM (inactive). Besides, the GI50 in the assay with MCF7 was 1.91 µM (inactive); in the assay with UO-31 it was 1.59 µM (inactive); in the assay on OVCAR-5 it was 1.78 µM (inactive); in the assay with T47D, 1.54 µM (inactive); in the assay on BT-549, 1.92 µM (inactive); with SNB-19, 1.88 µM (inactive). For the same molecule, the values for the GI50 in the assay on U-251 and with EKVX were 1.97 µM (inactive) and 1.63 µM (inactive), respectively.
For `C=CCNC1=C2C[C@@H](C)C[C@@H](OC)[C@H](OC(=O)CCN(C)C)[C@H](C)/C=C(\C)[C@@H](OC(N)=O)[C@H](OC)/C=C\C=C(/C)C(=O)NC(=CC1=O)C2=O`, the GI50 in the assay on K562 was 0.156 µM (active); with CAKI-1, 1.88 µM (inactive); with SF-295, 0.134 µM (active); with SK-OV-3 it was 0.0327 µM (active); in the assay on HOP-62, 0.044 µM (active); in the assay on UACC-62, 0.0545 µM (active). In addition, the GI50 is 2.05 µM (inactive) in the assay with MDA-MB-231; 0.0993 µM (active) with LOX IMVI; 3.97 µM (inactive) with OVCAR-4; 0.182 µM (active) in the assay with RXF 393; 0.125 µM (active) in the assay on NCI-H522; 0.0622 µM (active) in the assay with M14. In addition, the GI50 was 0.0295 µM (active) in the assay with MCF7; 0.822 µM (active) in the assay on UO-31; 2.18 µM (inactive) in the assay with OVCAR-5; 1.13 µM (inactive) in the assay on T47D; 12.9 µM (inactive) in the assay with BT-549; 1.17 µM (inactive) in the assay with SNB-19. The GI50 in the assay on U-251 was 0.203 µM (active); with EKVX, 1.35 µM (inactive).
`Cc1ccc(S(=O)(=O)N2CCN(CCN(C)CCN3CCN(S(=O)(=O)c4ccc(C)cc4)CC3)CC2)cc1`: the GI50 was 15 µM (inactive) in the assay with K562; 19.4 µM (inactive) with CAKI-1; 17.9 µM (inactive) in the assay on SF-295; 18.4 µM (inactive) in the assay with SK-OV-3; 17.8 µM (inactive) with HOP-62; 17.9 µM (inactive) with UACC-62. The GI50 in the assay with MDA-MB-231 was 20.6 µM (inactive); with LOX IMVI it was 17.2 µM (inactive); in the assay on OVCAR-4, 19.5 µM (inactive); in the assay on RXF 393, 14.3 µM (inactive); with NCI-H522, 19.8 µM (inactive); in the assay on M14, 17.2 µM (inactive). Further, the GI50 with MCF7 was 17.7 µM (inactive); in the assay on UO-31, 13.9 µM (inactive); in the assay with OVCAR-5, 28.5 µM (inactive); in the assay with T47D, 19.3 µM (inactive); with BT-549 it was 16.9 µM (inactive); with SNB-19 it was 26.2 µM (inactive). Besides, the GI50 with U-251 was 17.3 µM (inactive); in the assay with EKVX, 22.5 µM (inactive).
For the molecule `CC(=O)OC(Cc1ccc2ccccc2n1)(C(F)(F)F)C(F)(F)F`, the GI50 in the assay with K562 was 0.594 µM (active); in the assay on CAKI-1, 0.802 µM (active); in the assay on SF-295 it was 4.5 µM (inactive); with SK-OV-3, 14.3 µM (inactive); in the assay with HOP-62, 10.4 µM (inactive); in the assay on UACC-62 it was 1.32 µM (inactive). Also, the GI50 was 1.28 µM (inactive) in the assay with MDA-MB-231; 0.267 µM (active) in the assay on LOX IMVI; 2.45 µM (inactive) in the assay with OVCAR-4; 0.675 µM (active) with RXF 393; 0.519 µM (active) with NCI-H522; 1.23 µM (inactive) in the assay with M14. The GI50 with MCF7 is 0.063 µM (active); in the assay on UO-31, 2.22 µM (inactive); with OVCAR-5 it was 2.89 µM (inactive); in the assay with T47D it was 0.181 µM (active); with BT-549, 1.6 µM (inactive); in the assay with SNB-19, 3.76 µM (inactive). In addition, the GI50 in the assay on U-251 is 5.74 µM (inactive); with EKVX, 4.62 µM (inactive).
As to `Cc1c(C)c(CC(=O)N2CC2)c(C)c(C)c1CC(=O)N1CC1`, the GI50 is 12.6 µM (inactive) with K562; 2.12 µM (inactive) in the assay with CAKI-1; 3.4 µM (inactive) with SF-295; 16.8 µM (inactive) in the assay with SK-OV-3; 5.21 µM (inactive) in the assay with HOP-62; 3.33 µM (inactive) in the assay on UACC-62. Besides, the GI50 is 19.2 µM (inactive) in the assay on MDA-MB-231; 5.19 µM (inactive) with LOX IMVI; 19.1 µM (inactive) in the assay with OVCAR-4; 3.61 µM (inactive) in the assay on RXF 393; 9.02 µM (inactive) in the assay on NCI-H522; 5.25 µM (inactive) with M14. Moreover, the GI50 was 3.22 µM (inactive) in the assay with MCF7; 13.5 µM (inactive) with UO-31; 25.7 µM (inactive) in the assay on OVCAR-5; 6.61 µM (inactive) with T47D; 21.9 µM (inactive) in the assay on BT-549; 10.6 µM (inactive) in the assay on SNB-19. Moreover, the GI50 in the assay on U-251 is 5.56 µM (inactive); in the assay on EKVX it was 23.2 µM (inactive).
For the molecule `COc1c(OC(C)=O)c(OC(C)=O)cc2c1-c1ccc(SC)c(=O)cc1C(NC(C)=O)CC2` (stereo not given), the GI50 was 0.316 µM (active) with K562; 6.89 µM (inactive) in the assay with CAKI-1; 1.45 µM (inactive) in the assay on SF-295; 2.91 µM (inactive) in the assay with SK-OV-3; 0.681 µM (active) in the assay with HOP-62; 0.397 µM (active) with UACC-62. The GI50 was 0.512 µM (active) with MDA-MB-231; 1.81 µM (inactive) in the assay on LOX IMVI; 26 µM (inactive) in the assay on OVCAR-4; 3.66 µM (inactive) with RXF 393; 0.204 µM (active) with NCI-H522; 0.698 µM (active) in the assay with M14. Besides, the GI50 was 0.124 µM (active) in the assay on MCF7; 71.9 µM (inactive) in the assay with UO-31; 10.1 µM (inactive) in the assay with OVCAR-5; > 100 µM (inactive) in the assay with T47D; 0.201 µM (active) in the assay with BT-549; 0.42 µM (active) in the assay on SNB-19. The values for the GI50 in the assay with U-251 and in the assay with EKVX were 0.601 µM (active) and 36.1 µM (inactive), respectively.
As to `C=C(C)[C@@]1(O)O[C@H]2C[C@@]3(C)OC(=CC3=O)/C(C)=C\[C@@H]3OC(=O)[C@@]1(C)[C@H]32`, the GI50 in the assay on K562 was 4.67 µM (inactive); in the assay with CAKI-1 it was 19.6 µM (inactive); in the assay with SF-295 it was 23.7 µM (inactive); with SK-OV-3, 47.4 µM (inactive); with HOP-62, 21.6 µM (inactive); with UACC-62, 14.1 µM (inactive). The GI50 in the assay on MDA-MB-231 is 17 µM (inactive); in the assay on LOX IMVI, 6.31 µM (inactive); in the assay on OVCAR-4, 20.7 µM (inactive); with RXF 393, 11.1 µM (inactive); with NCI-H522, 3.61 µM (inactive); in the assay with M14, 14.9 µM (inactive). In addition, the GI50 with MCF7 is 11.6 µM (inactive); in the assay on UO-31, 30.1 µM (inactive); in the assay with OVCAR-5 it was 14 µM (inactive); in the assay on T47D, 21.3 µM (inactive); with BT-549, 8.89 µM (inactive); in the assay with SNB-19, > 58.7 µM (inactive). Further, the figures for the GI50 with U-251 and with EKVX were 16.1 µM (inactive) and 29.2 µM (inactive), respectively.
On to `O=c1c2ccccc2[nH]c(=S)n1-c1ccc(/N=N/c2cccc3c(O)cccc23)cc1`, for which the GI50 with K562 was 36.2 µM (inactive); in the assay with CAKI-1, > 100 µM (inactive); in the assay with SF-295, > 100 µM (inactive); in the assay with SK-OV-3, > 100 µM (inactive); with HOP-62, > 100 µM (inactive); in the assay on UACC-62, 24.4 µM (inactive). For the same molecule, the GI50 with MDA-MB-231 was 53.3 µM (inactive); with LOX IMVI, 39 µM (inactive); in the assay with OVCAR-4, > 100 µM (inactive); in the assay with RXF 393, > 100 µM (inactive); in the assay on NCI-H522, > 100 µM (inactive); in the assay on M14 it was 50.8 µM (inactive). Also, the GI50 in the assay on MCF7 was 13.5 µM (inactive); in the assay with UO-31, > 100 µM (inactive); in the assay on OVCAR-5 it was 76.7 µM (inactive); in the assay on T47D, > 100 µM (inactive); in the assay with BT-549 it was > 100 µM (inactive); in the assay with SNB-19 it was > 100 µM (inactive). Moreover, the GI50 was 87.5 µM (inactive) in the assay with U-251 and > 100 µM (inactive) with EKVX.
